# Data: ChEMBL document CHEMBL1201862, “PubChem BioAssay data set” (2004)
#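 Values below derive from 48-hour exposures of cells grown in 96-well plates, with endpoints linearly interpolated between the two concentrations bracketing the appropriate inhibition level. Abbreviation: GI50, concentration required for 50% inhibition of growth.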 Active and inactive are the calls of the source. Rule as the data show it: active = GI50 up to about 1.1 µM and inactive = higher.
# Columns and labels:
# Assay in all cases: growth of human tumour cells (NCI), 48 h
# NCI-H522 = system: NCI-H522
# HCT-116 = system: HCT-116
# HCC 2998 = system: HCC 2998
# SK-MEL-5 = system: SK-MEL-5
# OVCAR-8 = system: OVCAR-8
# Malme-3M = system: Malme-3M
# SK-MEL-28 = system: SK-MEL-28
# COLO 205 = system: COLO 205
# SK-OV-3 = system: SK-OV-3
# TK-10 = system: TK-10
# SN12C = system: SN12C
# IGROV-1 = system: IGROV-1
# RPMI-8226 = system: RPMI-8226
# LOX IMVI = system: LOX IMVI
# HL-60 = system: HL-60
# HOP-92 = system: HOP-92
SMILES,GI50 (NCI-H522),GI50 (HCT-116),GI50 (HCC 2998),GI50 (SK-MEL-5),GI50 (OVCAR-8),GI50 (Malme-3M),GI50 (SK-MEL-28),GI50 (COLO 205),GI50 (SK-OV-3),GI50 (TK-10),GI50 (SN12C),GI50 (IGROV-1),GI50 (RPMI-8226),GI50 (LOX IMVI),GI50 (HL-60),GI50 (HOP-92)
COc1ccc(C(=O)/C(=N/Nc2ccccc2)c2ccc(OC)cc2)cc1,80.4 µM (inactive),> 100 µM (inactive),> 100 µM (inactive),> 100 µM (inactive),> 100 µM (inactive),> 100 µM (inactive),> 100 µM (inactive),> 100 µM (inactive),61.2 µM (inactive),> 100 µM (inactive),> 100 µM (inactive),> 100 µM (inactive),51.4 µM (inactive),,,
O=[N+]([O-])C(/C=N/Nc1ccccc1)/C=N/Nc1ccccc1,> 100 µM (inactive),> 100 µM (inactive),> 100 µM (inactive),> 100 µM (inactive),> 100 µM (inactive),> 100 µM (inactive),> 100 µM (inactive),> 100 µM (inactive),> 100 µM (inactive),> 100 µM (inactive),> 100 µM (inactive),> 100 µM (inactive),,> 100 µM (inactive),> 100 µM (inactive),> 100 µM (inactive)
COc1ccc(CNC2=C(NC(C)=O)C(=O)c3ccccc3C2=O)cc1,1.37 µM (inactive),5.09 µM (inactive),48.4 µM (inactive),7.48 µM (inactive),16.8 µM (inactive),8.32 µM (inactive),18.3 µM (inactive),9.44 µM (inactive),19.5 µM (inactive),10.6 µM (inactive),16.8 µM (inactive),16.8 µM (inactive),,8.51 µM (inactive),1.69 µM (inactive),6.56 µM (inactive)
CNC(=O)CN(CC(=O)O)C(=O)NC,> 100 µM (inactive),,> 100 µM (inactive),> 100 µM (inactive),> 100 µM (inactive),> 100 µM (inactive),,> 100 µM (inactive),> 100 µM (inactive),> 100 µM (inactive),,> 100 µM (inactive),> 100 µM (inactive),> 100 µM (inactive),> 100 µM (inactive),> 100 µM (inactive)
COc1ccc(C2C(Cl)C(=O)N2n2cnc3ccccc3c2=O)cc1OC (stereo not drawn),57.9 µM (inactive),53 µM (inactive),> 100 µM (inactive),> 100 µM (inactive),> 100 µM (inactive),> 100 µM (inactive),68.7 µM (inactive),> 100 µM (inactive),76.4 µM (inactive),> 100 µM (inactive),> 100 µM (inactive),74.1 µM (inactive),81.1 µM (inactive),> 100 µM (inactive),57.7 µM (inactive),
C[P+](C)(CC(F)(F)F)c1ccccc1,> 100 µM (inactive),> 100 µM (inactive),> 100 µM (inactive),> 100 µM (inactive),> 100 µM (inactive),> 100 µM (inactive),,> 100 µM (inactive),> 100 µM (inactive),> 100 µM (inactive),> 100 µM (inactive),> 100 µM (inactive),> 100 µM (inactive),> 100 µM (inactive),> 100 µM (inactive),
N#CCN1CCOCCOCCN(CC#N)CCOCCOCC1,,> 100 µM (inactive),> 100 µM (inactive),> 100 µM (inactive),> 100 µM (inactive),> 100 µM (inactive),> 100 µM (inactive),> 100 µM (inactive),,> 100 µM (inactive),> 100 µM (inactive),> 100 µM (inactive),> 100 µM (inactive),> 100 µM (inactive),> 100 µM (inactive),> 100 µM (inactive)
COc1cc2c(cc1OC)c1c(OC)c(OC)cc3c1c1c2sc(=S)n1CC3,17.4 µM (inactive),97.9 µM (inactive),53.1 µM (inactive),41.5 µM (inactive),41.8 µM (inactive),86.3 µM (inactive),46.9 µM (inactive),> 100 µM (inactive),> 100 µM (inactive),> 100 µM (inactive),64.6 µM (inactive),> 100 µM (inactive),32.1 µM (inactive),31.5 µM (inactive),26.9 µM (inactive),> 100 µM (inactive)
C#CC1/C(=C\C(=O)OC)CCCC1O (stereo not drawn),> 100 µM (inactive),> 100 µM (inactive),> 100 µM (inactive),> 100 µM (inactive),> 100 µM (inactive),> 100 µM (inactive),,> 100 µM (inactive),> 100 µM (inactive),> 100 µM (inactive),> 100 µM (inactive),> 100 µM (inactive),> 100 µM (inactive),,> 100 µM (inactive),> 100 µM (inactive)
CC(=O)OC1COC(N2C(=O)/C(=N\Nc3ccc([N+](=O)[O-])cc3)c3cc(Br)c([N+](=O)[O-])cc32)C(OC(C)=O)C1OC(C)=O (stereo not drawn),24.1 µM (inactive),44.6 µM (inactive),> 100 µM (inactive),24.1 µM (inactive),> 100 µM (inactive),> 100 µM (inactive),> 100 µM (inactive),> 100 µM (inactive),40.6 µM (inactive),> 100 µM (inactive),> 100 µM (inactive),26.2 µM (inactive),> 100 µM (inactive),51.1 µM (inactive),65.6 µM (inactive),8.26 µM (inactive)
CC(=O)Oc1cc2c(cc1OC(C)=O)C1(C)CCC2(C)c2cc(OC(C)=O)c(OC(C)=O)cc21,2.24 µM (inactive),,25.1 µM (inactive),22.6 µM (inactive),15 µM (inactive),13 µM (inactive),21.4 µM (inactive),51.4 µM (inactive),29.2 µM (inactive),26.5 µM (inactive),40.3 µM (inactive),26.7 µM (inactive),3.52 µM (inactive),12.6 µM (inactive),4.13 µM (inactive),6.9 µM (inactive)
CC(C)N1CN(C(C(=O)N[C@@H]2C(=O)N3C2SC(C)(C)C3C(=O)O)c2ccccc2)CSC1=S (stereo partly drawn),27.8 µM (inactive),> 100 µM (inactive),,> 100 µM (inactive),> 100 µM (inactive),> 100 µM (inactive),> 100 µM (inactive),46.9 µM (inactive),> 100 µM (inactive),> 100 µM (inactive),> 100 µM (inactive),> 100 µM (inactive),69.5 µM (inactive),83.9 µM (inactive),> 100 µM (inactive),> 100 µM (inactive)
CN(N=O)C(=O)N(N)CCCCC(NC(=O)OCc1ccccc1)C(=O)OCc1ccccc1 (stereo not drawn),11.7 µM (inactive),29.8 µM (inactive),18.2 µM (inactive),44.7 µM (inactive),33.7 µM (inactive),40.1 µM (inactive),> 100 µM (inactive),18.5 µM (inactive),> 100 µM (inactive),> 100 µM (inactive),18.6 µM (inactive),49.2 µM (inactive),> 100 µM (inactive),17.9 µM (inactive),5.25 µM (inactive),10.7 µM (inactive)
OC(c1ccccc1)(c1ccccc1)c1cccnc1,,> 100 µM (inactive),> 100 µM (inactive),> 100 µM (inactive),> 100 µM (inactive),> 100 µM (inactive),> 100 µM (inactive),> 100 µM (inactive),> 100 µM (inactive),> 100 µM (inactive),> 100 µM (inactive),> 100 µM (inactive),> 100 µM (inactive),> 100 µM (inactive),,
CC1=C(C(=O)NCc2ccccc2)C(c2ccccc2O)C(C(=O)NCc2ccccc2)=C(C)N1,16.5 µM (inactive),14.4 µM (inactive),21 µM (inactive),15 µM (inactive),18.7 µM (inactive),15.7 µM (inactive),18 µM (inactive),16.9 µM (inactive),26.1 µM (inactive),17.9 µM (inactive),17.1 µM (inactive),19.5 µM (inactive),29.6 µM (inactive),14.5 µM (inactive),17.3 µM (inactive),22.4 µM (inactive)
O=C1CCCC1NC(=O)C(F)(F)F (stereo not drawn),> 100 µM (inactive),> 100 µM (inactive),,> 100 µM (inactive),> 100 µM (inactive),0.182 µM (active),> 100 µM (inactive),,> 100 µM (inactive),> 100 µM (inactive),> 100 µM (inactive),> 100 µM (inactive),,,> 100 µM (inactive),> 100 µM (inactive)
O=C(O)CN(c1ccccc1)S(=O)(=O)c1ccccc1[N+](=O)[O-],> 100 µM (inactive),,,> 100 µM (inactive),> 100 µM (inactive),> 100 µM (inactive),> 100 µM (inactive),> 100 µM (inactive),> 100 µM (inactive),> 100 µM (inactive),> 100 µM (inactive),> 100 µM (inactive),> 100 µM (inactive),> 100 µM (inactive),> 100 µM (inactive),> 100 µM (inactive)
CN1CCN(CN2C(=O)C3C4C=CC(C3C2=O)C2C3C(=O)N(CN5CCN(C)CC5)C(=O)C3C42)CC1 (stereo not drawn),,16.5 µM (inactive),34.7 µM (inactive),17 µM (inactive),17.7 µM (inactive),,23.5 µM (inactive),17.5 µM (inactive),,38 µM (inactive),20.3 µM (inactive),34.2 µM (inactive),24.7 µM (inactive),17.9 µM (inactive),,
COc1ccc(NC(=O)c2cc(OC)c(OC)c(OC)c2)cc1,30.2 µM (inactive),36.7 µM (inactive),42.2 µM (inactive),28.2 µM (inactive),74.6 µM (inactive),41.6 µM (inactive),29 µM (inactive),26.5 µM (inactive),49.8 µM (inactive),> 100 µM (inactive),55 µM (inactive),66.1 µM (inactive),39.5 µM (inactive),60.3 µM (inactive),22.2 µM (inactive),> 100 µM (inactive)
